pIC50: −log10 of the molar value.
System: HSSY-II complex spheroid growth, percent test/control
Assay: Anticancer human tumor HSSY-II cell line growth inhibition [Asc];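 further: spheroids exposed to drug for 7 days before reading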
Details: for pIC50: curve of first compound; for viability, T/C: stronger effect = lower value
Method in brief: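 Complex solid-tumor spheroids incorporating human endothelial and mesenchymal stem cells received single agents or combinations over half-log dilution ranges anchored to clinical Cmax.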

[1] = second compound 0.01 µM, first compound 0.0316 µM
[2] = second compound 0.01 µM, first compound 0.1 µM
[3] = second compound 0.01 µM, first compound 0.316 µM
[4] = second compound 0.01 µM, first compound 1 µM
[5] = second compound 0.01 µM, first compound 3.16 µM
[6] = second compound 0.01 µM, first compound 10 µM
[7] = second compound 0.0316 µM, first compound 0.0316 µM
[8] = second compound 0.0316 µM, first compound 0.1 µM
[9] = second compound 0.0316 µM, first compound 0.316 µM
[10] = second compound 0.0316 µM, first compound 1 µM
[11] = second compound 0.0316 µM, first compound 3.16 µM
[12] = second compound 0.0316 µM, first compound 10 µM
[13] = second compound 0.1 µM, first compound 0.0316 µM
[14] = second compound 0.1 µM, first compound 0.1 µM
[15] = second compound 0.1 µM, first compound 0.316 µM
[16] = second compound 0.1 µM, first compound 1 µM
[17] = second compound 0.1 µM, first compound 3.16 µM
[18] = second compound 0.1 µM, first compound 10 µM
[19] = second compound 0.316 µM, first compound 0.0316 µM
[20] = second compound 0.316 µM, first compound 0.1 µM
[21] = second compound 0.316 µM, first compound 0.316 µM
[22] = second compound 0.316 µM, first compound 1 µM
[23] = second compound 0.316 µM, first compound 3.16 µM
[24] = second compound 0.316 µM, first compound 10 µM
[25] = second compound 1 µM, first compound 0.0316 µM
[26] = second compound 1 µM, first compound 0.1 µM
[27] = second compound 1 µM, first compound 0.316 µM
[28] = second compound 1 µM, first compound 1 µM
[29] = second compound 1 µM, first compound 3.16 µM
[30] = second compound 1 µM, first compound 10 µM

SMILES: C#Cc1c(F)ccc2cc(O)cc(-c3ncc4c(N5CC6CCC(C5)N6)nc(OCC56CCCN5CC(F)C6)nc4c3F)c12 (configuration not stated) + CNC(C)C(=O)NC1CN(S(=O)(=O)c2cccc(S(=O)(=O)N3CCC4CCC(C(=O)NC(c5ccccc5)c5ccccc5)N4C(=O)C(NC(=O)C(C)NC)C3)c2)CCC2CCC(C(=O)NC(c3ccccc3)c3ccccc3)N2C1=O
- pIC50 (second compound 0.00316 µM): < 5.00
- pIC50 (second compound 0.01 µM): 5.16
- pIC50 (second compound 0.0316 µM): 5.05
- pIC50 (second compound 0.1 µM): < 5.00
- pIC50 (second compound 0.316 µM): 5.02
- pIC50 (second compound 1 µM): 5.13
- viability, T/C (second compound 0.00316 µM, first compound 0.0316 µM): 97.9%
- viability, T/C (second compound 0.00316 µM, first compound 0.1 µM): 92.2%
- viability, T/C (second compound 0.00316 µM, first compound 0.316 µM): 92.2%
- viability, T/C (second compound 0.00316 µM, first compound 1 µM): 109%
- viability, T/C (second compound 0.00316 µM, first compound 3.16 µM): 96.7%
- viability, T/C (second compound 0.00316 µM, first compound 10 µM): 62.2%
- viability, T/C [1]: 100%
- viability, T/C [2]: 88%
- viability, T/C [3]: 94%
- viability, T/C [4]: 98.1%
- viability, T/C [5]: 88.8%
- viability, T/C [6]: 32%
- viability, T/C [7]: 100%
- viability, T/C [8]: 96.3%
- viability, T/C [9]: 95.2%
- viability, T/C [10]: 94.3%
- viability, T/C [11]: 94.2%
- viability, T/C [12]: 45.4%
- viability, T/C [13]: 100%
- viability, T/C [14]: 91.7%
- viability, T/C [15]: 93.6%
- viability, T/C [16]: 88.5%
- viability, T/C [17]: 85.1%
- viability, T/C [18]: 63%
- viability, T/C [19]: 102%
- viability, T/C [20]: 93.9%
- viability, T/C [21]: 88.5%
- viability, T/C [22]: 91.2%
- viability, T/C [23]: 84.9%
- viability, T/C [24]: 48.1%
- viability, T/C [25]: 91.9%
- viability, T/C [26]: 90.8%
- viability, T/C [27]: 96.2%
- viability, T/C [28]: 86.1%
- viability, T/C [29]: 86.6%
- viability, T/C [30]: 37.5%

SMILES: C=CC(=O)N1CCN(c2nc(=O)n(-c3c(C)ccnc3C(C)C)c3nc(-c4c(O)cccc4F)c(F)cc23)C(C)C1 (configuration not stated) + CNC(C)C(=O)NC1CN(S(=O)(=O)c2cccc(S(=O)(=O)N3CCC4CCC(C(=O)NC(c5ccccc5)c5ccccc5)N4C(=O)C(NC(=O)C(C)NC)C3)c2)CCC2CCC(C(=O)NC(c3ccccc3)c3ccccc3)N2C1=O
- pIC50 (second compound 0.01 µM): 5.10
- pIC50 (second compound 0.0316 µM): 5.23
- pIC50 (second compound 0.1 µM): 5.22
- pIC50 (second compound 0.316 µM): 5.13
- pIC50 (second compound 1 µM): 5.19
- viability, T/C [1]: 97.5%
- viability, T/C [2]: 108%
- viability, T/C [3]: 107%
- viability, T/C [4]: 101%
- viability, T/C [5]: 94.3%
- viability, T/C [6]: 39.1%
- viability, T/C [7]: 92.9%
- viability, T/C [8]: 104%
- viability, T/C [9]: 91.7%
- viability, T/C [10]: 89.8%
- viability, T/C [11]: 72%
- viability, T/C [12]: 30.9%
- viability, T/C [13]: 86.9%
- viability, T/C [14]: 91.8%
- viability, T/C [15]: 90.6%
- viability, T/C [16]: 87.5%
- viability, T/C [17]: 68.4%
- viability, T/C [18]: 35.1%
- viability, T/C [19]: 89.5%
- viability, T/C [20]: 98.9%
- viability, T/C [21]: 101%
- viability, T/C [22]: 92.2%
- viability, T/C [23]: 89.1%
- viability, T/C [24]: 36.2%
- viability, T/C [25]: 82.7%
- viability, T/C [26]: 87.6%
- viability, T/C [27]: 88.5%
- viability, T/C [28]: 73.5%
- viability, T/C [29]: 89%
- viability, T/C [30]: 28.1%

— PubChem BioAssay AID1963444 (Molecular Pharmacology Branch, DTP, NCI, 2024)
